# Data taken from patent US20090137499A1, “BENZYLPHENYL GLUCOPYRANOSIDE DERIVATIVE” (priority 2006, published 2009).
# Target: T1, human SGLT2 (Homo sapiens, UniProt P31639)
# T1 construct: expressed in transfected cells
# T1 sequence (P31639 1-672): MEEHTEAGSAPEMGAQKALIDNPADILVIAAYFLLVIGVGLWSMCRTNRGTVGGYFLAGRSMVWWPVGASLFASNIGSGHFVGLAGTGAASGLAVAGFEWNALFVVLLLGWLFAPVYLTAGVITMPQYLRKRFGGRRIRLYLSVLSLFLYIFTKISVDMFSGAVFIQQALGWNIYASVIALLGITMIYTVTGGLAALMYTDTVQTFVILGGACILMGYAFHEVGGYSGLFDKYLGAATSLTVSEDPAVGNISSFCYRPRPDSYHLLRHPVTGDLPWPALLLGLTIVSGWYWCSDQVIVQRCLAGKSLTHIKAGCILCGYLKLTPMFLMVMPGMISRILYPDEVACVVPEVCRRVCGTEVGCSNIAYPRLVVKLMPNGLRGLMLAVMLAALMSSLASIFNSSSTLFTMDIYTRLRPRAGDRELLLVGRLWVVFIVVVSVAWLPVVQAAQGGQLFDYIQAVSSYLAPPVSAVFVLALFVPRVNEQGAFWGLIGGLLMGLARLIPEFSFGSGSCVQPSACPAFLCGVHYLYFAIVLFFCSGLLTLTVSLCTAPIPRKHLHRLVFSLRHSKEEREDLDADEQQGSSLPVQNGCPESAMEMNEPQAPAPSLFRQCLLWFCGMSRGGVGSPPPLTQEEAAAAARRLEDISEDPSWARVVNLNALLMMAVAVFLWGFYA
# Experiment: Determination of SGLT2 inhibiting activity using human SGLT2 expressing cell ([14C]-α-methyl-D-glucopyranoside uptake)
# Assay type: cell-based
# Conditions: HEK-SGLT2 cells, 1 mM [14C]-α-methyl-D-glucopyranoside, 37° C., 30 min
# Procedure: Determination of SGLT2 Inhibiting Activity Using Human SGLT2 Expressing Cell
# 1) Preparation of Vector Expressing Human SGLT2 cDNA in Animal Cell
# Amplification was performed by PCR using human SGLT2 cDNA clone (Origene: Clone Number, TC303267; GenBank accession number, NM 003041) as a template. The sense oligonucleotide primer for PCR was 5′-[…]-3′ (Primer 3: SEQ ID NO: 3 in the sequence listing),
# and the antisense oligonucleotide primer was 5′-[…]-3′ (Primer 4: SEQ ID NO: 4 in the sequence listing). The PCR product was subjected to agarose electrophoresis, then a target DNA fragment was recovered from a single band corresponding to 2037 bases, digested with restriction enzymes HindIII and XhoI, and introduced into the HindIII/XhoI site of vector pCMV-Script (Stratagene) to obtain SGLT2 expressing plasmid pCMV-SGLT2. A HindIII/XhoI fragment was excised from pCMV-SGLT2 and introduced into the BamHI/XhoI site of pENTR1A (Gateway, Invitrogen) to prepare pENTR-SGLT2. Retrovirus vector pLPCX (Clontech) into which Gateway Vector Conversion System Cassette A (Invitrogen) was introduced was used as the destination plasmid to prepare SGLT2 expressing retrovirus vector pLPCX-SGLT2.
# 2) Establishment of Human SGLT2 Expressing Cell
# The retrovirus pLPCX-SGLT2 obtained in 1) was transfected into integrin αvβ3 expressing HEK-293 cells, the cells were treated with antibiotic G418 (brand name, Geneticin: Invitrogen) and puromycin (Clontech) to obtain HEK-SGLT2 cells stably expressing the target vector having resistance. The stably expressing cells were cultured and maintained in DMEM medium containing […] G418, […] puromycin, 3 mM KGT-1075, and 10% FBS.
# 3) Determination of SGLT2 Inhibiting Activity
# HEK-SGLT2 cells were suspended at a density of 10^6 cells/mL in DMEM medium containing 250 mg/mil G418, 1 mg/ml puromycin, and 10% FBS, and 100 μL was seeded in each well of a type 1 collagen-coated 96-well culture plate (Corning). On the following day, the medium was replaced with a sugar uptake buffer (10 mM HEPES [pH 7.5], 5 mM Tris-HCl [pH 7.5], 140 mM NaCl, 2 mM KCl, 1 mM CaCl2, 1 mM MgCl2), and the cells were cultured with 1 mM [^14C]-α-methyl-D-glucopyranoside (0.1 mCi) and a test compound at 37° C. for 30 min, and then washed 3 times with a washing buffer (10 mM HEPES (pH 7.5), 5 mM Tris-HCl (pH 7.5), 140 mM choline chloride, 2 mM KCl, 1 mM CaCl2, 1 mM MgCl2). 100 μL of liquid scintillation cocktail (brand name, Supermix: Perkin-Elmer) was added to each well of the 96-well plate and stirred for 10 min, and then radioactivity was determined with micro β (Perkin-Elmer), a type of liquid scintillation counter. The value obtained by deducting the radioactivity in the presence of an excess amount of an SGLT2 inhibiting compound as the background from each measured value was taken as the sugar uptake activity, the inhibition rate (%) was calculated from the control sugar uptake activity obtained without using a test compound and the sugar uptake activity obtained using a test compound having a predetermined concentration, and the concentrations of the test compound at which the sugar uptake activity was inhibited by 50% were assessed.
row,Structure (SMILES),IC50 [nM]
1,"COc1ccc(Cc2c(Cl)cc(CO)cc2O[C@@H]2O[C@](C)(CO)[C@@H](O)[C@H](O)[C@H]2O)cc1 [Example 55, 3-Chloro-5-hydroxymethyl-2-(4-methoxybenzyl)phenyl 5-C-methyl-β-D-glucopyranoside]",10
2,"COc1ccc(Cc2c(Cl)cc(CO)cc2O[C@@H]2O[C@H](CO)[C@@](C)(O)[C@H](O)[C@H]2O)cc1 [Example 56, 3-Chloro-5-hydroxymethyl-2-(4-methoxybenzyl)phenyl 4-C-methyl-β-D-glucopyranoside]",11
3,"COc1ccc(Cc2ccc(N)cc2O[C@@H]2O[C@H](CO)[C@@](C)(O)[C@H](O)[C@H]2O)cc1 [Example 64, 5-Amino-2-(4-methoxybenzyl)phenyl 4-C-methyl-β-D-glucopyranoside]",13
4,"COc1ccc(Cc2ccc(N)cc2O[C@@H]2O[C@H](CO)C[C@H](O)[C@H]2O)cc1 [Example 65, 5-Amino-2-(4-methoxybenzyl)phenyl 4-deoxy-β-D-glucopyranoside]",20
5,"COc1ccc(Cc2c(F)cc(CO)cc2O[C@@H]2O[C@H](CO)C[C@H](O)[C@H]2O)cc1 [Example 85, 3-Fluoro-5-hydroxymethyl-2-(4-methoxybenzyl)phenyl 4-deoxy-β-D-glucopyranoside]",20
6,"COc1ccc(Cc2c(Cl)cc(CO)cc2O[C@@H]2O[C@H](CO)C[C@H](O)[C@H]2O)cc1 [Example 86, 3-Chloro-5-hydroxymethyl-2-(4-methoxybenzyl)phenyl 4-deoxy-β-D-glucopyranoside]",19
7,"CCOc1ccc(Cc2ccc(COC(=O)CO)cc2O[C@@H]2O[C@H]([C@@H](C)O)[C@@H](O)[C@H](O)[C@H]2O)cc1 [Example 99, 5-Hydroxyacetyloxymethyl-2-(4-ethoxybenzyl)phenyl 7-deoxy-D-glycero-β-D-gluco-heptopyranoside]",272
